Among the data in PubChem BioAssay AID1159559 (GlaxoSmithKline (GSK), 2015) are IC50 values, retold here.

The test system of this experiment is T. cruzi Tulahuen in NIH-3T3, beta-gal fluorescence, 4 d. Nature of the experiment: T. cruzi intracellular growth inhibition, cell-based (AID 1159559).

Calls of active or inactive are those of the source.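 The calls were made as follows: active = compounds whose IC50 against parasite growth in infected mouse cells is below 50000 nM; inactive = the rest.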

One may read the IC50 as the midpoint of a concentration-inhibition curve.

With `CN1CCC(N(C)c2nccc(N3CCN(C(=O)c4cccc(-c5cccnc5)c4)CC3)n2)CC1`, the IC50 is 320 nM.
For `Cc1ccc(NC(=O)c2ccnc(N3CCCC3)c2)cc1-c1cc(C(N)=O)ccc1C`, the 50% inhibitory concentration (IC50) was 6300 nM.
Turning to `C[C@@H](Oc1cc(-n2cnc3ccc(C(O)CO)cc32)sc1C(N)=O)c1ccccc1C(F)(F)F` (stereo partly drawn), the IC50 is 5000 nM.
On to `O=C(C1CCCCC1)N1CCN(c2nnc(-c3ccccc3)c3ccccc23)CC1`, for which the IC50 is 1000 nM.
Turning to `Cc1cc(C)cc(NS(=O)(=O)c2cc(-c3cc(C)[nH]n3)ccc2C)c1`, the IC50 was 1000 nM.
For `CCOc1cnn(C)c(=O)c1Nc1ccc(C(=O)NCc2ccc(F)cc2)cc1`, the IC50 was 250 nM.
For `Cc1cc(NC(=O)c2ccc([N+](=O)[O-])s2)ccc1Br` the value was 250 nM; for `COc1ccc(C(=O)[C@H]2C[C@@H]2CN(Cc2ccccn2)Cc2ccccn2)cc1`, 1600 nM; for `COc1ccc2ncc(=O)n(CCN3CCOC(CNCc4ccc(C(F)(F)F)cc4F)C3)c2n1` (stereo not drawn), 400 nM.
For `CNc1cc(Cn2c(C(=O)c3cc(C)cc(Cl)c3)c(C(C)C)c(=O)[nH]c2=O)ccn1` the value was 40 nM.
As to `CC(c1ccc2c(c1)CCCC2)N(C)c1ncc2c(N)nc(N)nc2n1` (stereo not drawn), the IC50 was 32 nM.
Take `CC(C)N(C(=O)CN1C(=O)C(N)C(=O)N(c2ccccc2)c2ccccc21)c1ccccc1` (stereo not drawn): the IC50 was 320 nM.
On to `CC1CN(S(=O)(=O)c2ccc(NC(=O)c3cc(C4CC4)nc4c3cnn4C(C)C)cc2)CC(C)O1` (stereo not drawn), for which the IC50 is 630 nM.
On to `NC(=O)c1cc(F)ccc1Nc1nc(NC2CCC(O)CC2)ncc1Br` (stereo not drawn), for which the IC50 was 2500 nM.
The value for `CCN(CC)S(=O)(=O)c1ccc(C)c(NC(=O)c2cc(Cl)c3c(c2)OCO3)c1` was 6300 nM.
In the case of `CCCn1c(NC(=O)CCn2cc(Br)cn2)nc2ccccc21`, the half-maximal inhibitory concentration (IC50) was 5000 nM.
For the molecule `CN(C)S(=O)(=O)c1cccc(CSc2nnc(-c3ccc4c(c3)OCO4)o2)c1`, the IC50 is 500 nM.
On to `N#CN1CC[C@@H](NC(=O)Nc2ccccc2Oc2ccccc2)C1`, for which the IC50 is 5000 nM.
For `CCn1c(-c2nonc2N)nc2c([C@@H](C)O)ncc(O[C@H](CN)c3ccccc3)c21` the value was 7900 nM; for `Cc1ccccc1OCC(=O)N1CCCN(c2cccnn2)CC1`, 320 nM; for `Cc1cc(-c2cccc3ccccc23)nc2nc(N)nc(N)c12`, 40000 nM.
With `O=C(NCCc1ccccc1Cl)c1cccn1-c1cccnc1`, the 50% inhibitory concentration (IC50) is 400 nM.
For the molecule `Cc1nn(-c2nc(N)nc(-c3ccccn3)n2)c(C)c1Cc1ccccc1`, the IC50 was 2500 nM.
For `CC(CNS(=O)(=O)c1ccc(OC(F)F)cc1)c1ccc(NC(=O)c2ccncc2)cc1` (stereo not drawn), the IC50 is 200 nM.
As to `O=C(CSc1nnc2ccc(-c3ccc(F)cc3)nn12)N1CCCCC1`, the IC50 is 2500 nM.
As for `CCCCNc1nccc(-c2c(-c3ccc(F)cc3)nn3c(N4CCOCC4)cccc23)n1`, the concentration for half-maximal inhibition (IC50) is 400 nM.
Take `COC(=O)c1ccc(-c2cnc3ccc(NCc4ccccn4)nn23)cc1`: the half-maximal inhibitory concentration (IC50) was 7900 nM.
The value for `CN(Cc1nc2c(C(=O)N3CCN(Cc4ccccc4)CC3)cccc2[nH]1)C1CCCc2cccnc21` (stereo not drawn) was 790 nM; that for `CCN(Cc1ccncc1)Cc1ccc(NC(=O)c2cc(-c3ccc(F)cc3)n[nH]2)cc1` was 400 nM; that for `O=C(Nc1ccc(Br)c(Cl)c1)Nc1ccc2c(c1)OCO2` was 2500 nM.
For `CCCCn1nnnc1CSc1nc(C)cc(C)c1C#N` the value was 320 nM.
For `COc1cnc2ccc(=O)n(CCN3CCC(NC(=O)Cc4ccc(Cl)c(Cl)c4)CC3)c2c1`, the IC50 was 320 nM.
Take `c1cncc(CN(Cc2ccco2)Cc2cn[nH]c2-c2cccs2)c1`: the IC50 is 20 nM.
As to `O=C(CN(c1cccc(C(F)(F)F)c1)S(=O)(=O)c1ccc(Cl)cc1)NCc1ccc(F)c(F)c1`, the IC50 is 790 nM.
For `CCC(=O)Nc1ccc(-c2nc3ccc(Cl)cc3[nH]2)cc1` the value was 2000 nM.
As to `CCOc1ccc2nc(NC(=O)c3ccc([N+](=O)[O-])s3)sc2c1`, the IC50 is 1600 nM.
For `CN(Cc1nnnn1C1CCN(Cc2ccc(-n3ccnc3)cc2)CC1)c1ccc(F)cc1F`, the half-inhibitory concentration (IC50) is 320 nM.
For `O=C1CSC(c2cccnc2)N1c1ccc(Cl)cc1Cl` (stereo not drawn), the 50% inhibitory concentration (IC50) is 63 nM.
Turning to `CN(C)CCN(C)Cc1ccc(Cl)cc1NS(=O)(=O)c1ccc(Cl)c(Cl)c1`, the IC50 is 1000 nM.
For `NC(=O)c1cc(F)ccc1Nc1nc(NC2CCC(O)CC2)ncc1Cl` (stereo not drawn), the concentration for half-maximal inhibition (IC50) was 4000 nM.
Turning to `CN(CCOc1ccc(Cl)cc1)Cc1nc(N)nc(N(C)C)n1`, the IC50 was 5000 nM.
Take `c1ccc(-c2nc(NCc3ccco3)c3ccccc3n2)nc1`: the IC50 is 6300 nM.
In the case of `CC(=O)Nc1ccc(-c2csc(NC(=O)c3ccc([N+](=O)[O-])s3)n2)cc1`, the 50% inhibitory concentration (IC50) is 130 nM.
`CN(C)CCN(C)Cc1ccc(F)cc1NS(=O)(=O)c1ccc(Cl)c(Cl)c1`: the IC50 is 1600 nM.
Regarding `COc1cccc(S(=O)(=O)Nc2ccc3c(c2)CC(N2CCC(NC(=O)C4CC4)CC2)C3)c1` (stereo not drawn), the half-inhibitory concentration (IC50) is 40000 nM.
Take `COc1cc(OC)cc(C(=O)N[C@@H](CC(C)C)C(=O)NC2(C#N)CC2)c1`: the IC50 was > 50000 nM (inactive).
Regarding `NC(=O)c1ncccc1Nc1nc(NC2CCC(O)CC2)ncc1Br` (stereo not drawn), the IC50 was 1600 nM.
The value for `Cc1c(C(C)NC(=O)Nc2cccc(Cl)c2)sc2ncnn12` (stereo not drawn) was 130 nM.
Regarding `O=C(Nc1nccs1)c1ccccc1Cn1cc([N+](=O)[O-])cn1`, the IC50 was > 50000 nM (inactive).
For `CCOc1ccc(Nc2ccc(S(=O)(=O)N3CCN(C)CC3)cc2[N+](=O)[O-])cc1OCC` the value was 7900 nM.
As to `CC(C)COC(=O)Nc1ccc(N2CCC(CNS(=O)(=O)c3ccccc3)CC2)c(F)c1`, the half-maximal inhibitory concentration (IC50) was 10000 nM.
`N#Cc1cccc(CNc2ccc(-c3cnn(CC4CC4)c(=O)c3C#N)cc2)c1`: the half-inhibitory concentration (IC50) was 5000 nM.
As to `CS(=O)(=O)N1CCC(Nc2ncc(Br)c(Nc3cccc(F)c3C(N)=O)n2)CC1`, the IC50 is 320 nM.
`COc1ccc2ncc(F)c(CCN3CC[C@@H](NC(=O)c4cc5c(s4)CCC5)[C@@H](O)C3)c2n1`: the IC50 was 160 nM.
As to `O=C(CN1CCC2(O)CCCCC2C1c1ccc2c(c1)OCO2)Nc1ccc(Cl)cc1Cl` (stereo not drawn), the IC50 is 13000 nM.
In the case of `CCc1ccc2nc(NC(=O)c3cc(N4CCOCC4)ccn3)sc2c1`, the IC50 was 2500 nM.
`O=C(c1cc2cc(Cl)ccc2[nH]1)N1CCCCC1c1cccnc1` (stereo not drawn): the IC50 is 250 nM.
The value for `CCC1Oc2cc(S(=O)(=O)N(C)CC(=O)N3CCc4ccccc4C3)c(C)cc2NC1=O` (stereo not drawn) was 200 nM; that for `N#Cc1cccc(Cc2cc(Nc3cc(C4CC4)[nH]n3)nc(N3CC[C@H]3C(N)=O)n2)c1` was 400 nM; that for `CCOc1ccc(OCC(=O)N2c3ccccc3CC2C(=O)NC)cc1` (stereo not drawn) was > 50000 nM (inactive).
The value for `NC(N)=Nc1nc(-c2ccc(NC(N)=NCCN3CCCC3)cc2)cs1` was > 50000 nM (inactive); that for `COc1ccc(CNc2nsc3ccccc23)cc1OC` was 6300 nM; that for `O=C(c1ccc(Cl)cc1)c1ccc(OC(=O)N2CCOCC2)cc1` was 13000 nM.
For `CN(C)Cc1ccc(N2CCC(NS(=O)(=O)c3ccc(Cl)cc3)CC2)cc1`, the IC50 was 790 nM.
Regarding `Cc1nn(C)c(Cl)c1CN(Cc1cccnc1)Cc1ccsc1`, the concentration for half-maximal inhibition (IC50) was 160 nM.
In the case of `Cc1nc(-c2ccc3c(c2)OCO3)sc1C(=O)NCc1ccc2c(c1)OCO2`, the IC50 was 3200 nM.
For `CN(Cc1cccnc1)Cc1ccc(N2CCN(C(=O)C3(c4ccc(Cl)cc4)CC3)CC2)nc1` the value was 500 nM; for `COc1cccc(-c2c(C)nn(-c3nc(N)nc(-c4ccccn4)n3)c2N)c1`, 2500 nM; for `CC(C)Nc1nc(Cl)nc2ccccc12`, 4000 nM.
For the molecule `CNc1nc(C)nc(N2CCc3cc(C(=O)NCc4ccc(-c5ccn[nH]5)cc4Cl)ccc32)n1`, the IC50 is > 50000 nM (inactive).
On to `O=C(CSc1ccc(-c2ccccn2)nn1)Nc1ccc(Cl)cc1`, for which the concentration for half-maximal inhibition (IC50) is 2500 nM.
The value for `NCc1csc(Nc2cc(Oc3ccccc3)ncn2)n1` was 32000 nM; that for `CCN(CC)S(=O)(=O)c1ccc(C(=O)Nc2cc(C)nn2-c2nc(C)c(C)c(=O)[nH]2)cc1` was 630 nM.
In the case of `O=c1[nH]c(C=Cc2cccc(OCCOc3ccccc3)c2)nc(O)c1[N+](=O)[O-]`, the IC50 is 790 nM.
On to `N#Cc1ccc(S(=O)(=O)N2CCN(Cc3cccc(-c4ccncc4)c3)CC2)cc1`, for which the IC50 was 400 nM.
As for `O=c1[nH]cnc2c([C@@H]3O[C@H](CO)[C@@H](O)[C@H]3O)[nH]nc12`, the half-inhibitory concentration (IC50) is 130 nM.
As to `Fc1ccc(OC2CC(NCc3cccc4cn[nH]c34)C2)cc1C(F)(F)F` (stereo not drawn), the IC50 was 790 nM.
Consider `O=C(Nc1nc(-c2ccccn2)cs1)c1ccccc1-n1cnnn1`, for which the IC50 is 3200 nM.
On to `COc1ccc(C(=O)NC2CCN(CCn3c(=O)ccc4ncc(F)cc43)CC2)cc1Cl`, for which the concentration for half-maximal inhibition (IC50) is 500 nM.
On to `O=C(Nc1nc(-c2ccccn2)cs1)N1C[C@H]2C[C@@]2(c2ccccc2)C1`, for which the IC50 was 500 nM.
With `O=C(Nc1cccc(S(=O)(=O)Nc2ccc(Br)cc2)c1)c1ccc([N+](=O)[O-])s1`, the IC50 was 100 nM.
With `COc1ncc(-c2ccc3nccc(-c4ccncc4)c3c2)cc1NS(=O)(=O)C1CC1`, the IC50 is 320 nM.
The value for `CN1CCN(c2nc(-c3ccc(Cl)cc3)c3c(N)n(C)nc3n2)CC1` was 2000 nM; that for `O=C(NC(CO)c1ccc(F)cc1)c1ccc(-c2c[nH]c3ncccc23)s1` (stereo not drawn) was 10000 nM.
Regarding `Cn1c(CC(=O)NNC(=O)c2ccc3ccccc3n2)nc2ccccc21`, the concentration for half-maximal inhibition (IC50) was 3200 nM.
For `Cc1nc(C(=O)Nc2ccc3c(c2)OCO3)nn1-c1ccc(Cl)cc1`, the IC50 was 6300 nM.
The value for `CNC(=O)C1Cc2ccccc2N1C(=O)COc1cccc(OC)c1` (stereo not drawn) was > 50000 nM (inactive).
As for `O=C(Nc1ccc(S(=O)(=O)N2CCCC2)cc1)c1ccc([N+](=O)[O-])s1`, the IC50 is 200 nM.
`CN(C)S(=O)(=O)c1ccc(Cl)c(C(=O)Nc2nc(-c3ccccn3)cs2)c1`: the IC50 was 1600 nM.
Consider `COc1ccc(C)cc1-c1csc(NC(=O)C(C)n2ccnc2)n1` (stereo not drawn), for which the IC50 is 63 nM.
For `COc1ccc(S(=O)(=O)NC(C)C)cc1Nc1ncc(-c2cccc(F)c2)cn1`, the IC50 is 630 nM.
As for `O=C(NCc1nnc2n1CCCCC2)c1csc(-c2ccccc2)n1`, the half-maximal inhibitory concentration (IC50) was 2500 nM.
`Cc1cc(Br)cc(C(=O)c2c(C(C)C)c(=O)[nH]c(=O)n2Cc2ccnc(N)c2)c1`: the concentration for half-maximal inhibition (IC50) is 400 nM.
